For assay [1], the target named is T1, IRAK4 (Homo sapiens, UniProt Q9NWZ3).
T1 sequence (Q9NWZ3 1-460): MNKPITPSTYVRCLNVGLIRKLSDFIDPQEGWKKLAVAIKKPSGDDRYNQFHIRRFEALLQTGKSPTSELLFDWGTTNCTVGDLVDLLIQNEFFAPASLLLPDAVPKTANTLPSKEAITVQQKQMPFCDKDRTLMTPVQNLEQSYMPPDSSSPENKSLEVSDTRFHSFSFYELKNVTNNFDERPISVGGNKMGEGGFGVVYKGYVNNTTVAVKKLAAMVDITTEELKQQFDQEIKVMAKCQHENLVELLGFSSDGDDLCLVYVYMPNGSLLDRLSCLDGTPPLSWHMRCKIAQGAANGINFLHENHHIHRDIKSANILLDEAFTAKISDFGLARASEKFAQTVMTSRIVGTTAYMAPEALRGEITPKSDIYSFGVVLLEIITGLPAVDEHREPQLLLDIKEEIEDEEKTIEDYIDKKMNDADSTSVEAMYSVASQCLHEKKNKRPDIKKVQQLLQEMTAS
Description: 2-hour 10 μM ATP Biochemical Assay (MesoScale Detection format; IRAK4 phosphorylation of biotin labeled IRAK1 activation loop peptide). The note with it: IRAK4 MSD BIOCHEMICAL (10 μM ATP) IC50 (μM), 1 nM IRAK4, 2 hours. The procedure, abridged: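 Kinase reaction run 2 h at 10 μM ATP with biotinylated IRAK1 activation-loop peptide, quenched with EDTA. Phospho-peptide captured on streptavidin MSD plates and detected with anti-phosphothreonine rabbit antibody plus Sulfo-Tag anti-rabbit electrochemiluminescence.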

Assay [2] concerns the target T1, IRAK4. Description: 2-hour 1 mM ATP IRAK4 Biochemical assay (as above, but with 100 pM IRAK4 and 1 mM ATP). The note with it: IRAK4 MSD BIOCHEMICAL (1 mM ATP) IC50 (μM), 100 pM IRAK4, 2 hours. In short, it runs like this: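 Run with 100 pM IRAK4 and 1 mM ATP for 2 hours, quenched with EDTA pH 8. Phosphorylated biotinylated peptide captured on streptavidin MSD plates and detected with anti-phosphothreonine antibody plus Sulfo-Tag secondary by electrochemiluminescence.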

Structures can show the parent of a compound that is named as a salt.

As usually defined, the IC50 is the midpoint of a concentration-inhibition curve. A lower IC50 goes with inhibition by little substance. On to `CCOc1cc2nc(C3CC3)cn2cc1NC(=O)c1cccc(C2CCOC2)n1` (centres unmarked) [Example 238, N-(2-cyclopropyl-7-ethoxyimidazo[1,2-a]pyridin-6-yl)-6-(tetrahydrofuran-3-yl)picolinamide], for which the 50% inhibitory concentration (IC50) at IRAK4 [1] was 0.004 µM; on IRAK4 [2] it was 0.015 µM.

`CCOc1cc2nc(C3CCOCC3)cn2cc1NC(=O)c1cccc(C(F)CF)n1` (centres unmarked) [Example 239, 6-(1,2-difluoroethyl)-N-(7-ethoxy-2-(tetrahydro-2H-pyran-4-yl)imidazo[1,2-a]pyridin-6-yl)picolinamide]: the IC50 at IRAK4 [1] worked out at 0.002 µM; against IRAK4 [2], 0.003 µM.

For the compound `CCOc1cc2nc(C3CCOCC3)cn2cc1NC(=O)c1cnc2c(c1)CCO2` [Example 240, N-(7-ethoxy-2-(tetrahydro-2H-pyran-4-yl)imidazo[1,2-a]pyridin-6-yl)-2,3-dihydrofuro[2,3-b]pyridine-5-carboxamide], the figures for the IC50 on IRAK4 [1] and on IRAK4 [2] were 0.006 µM and 0.019 µM, respectively.

Regarding `CCOc1cc2nc(C(C)(C)C#N)cn2cc1NC(=O)c1csc(C)n1` [Example 241, N-(2-(2-cyanopropan-2-yl)-7-ethoxyimidazo[1,2-a]pyridin-6-yl)-2-methylthiazole-4-carboxamide], the 50% inhibitory concentration (IC50) against IRAK4 [1] turned out to be 0.01 µM; on IRAK4 [2], 0.041 µM.

`CCOc1nc2nc(CCCOC)cn2cc1NC(=O)c1cccc(C(F)F)n1` [Example 242, 6-(difluoromethyl)-N-(7-ethoxy-2-(3-methoxypropyl)imidazo[1,2-a]pyrimidin-6-yl)picolinamide]: the concentration for half-maximal inhibition (IC50) against IRAK4 [1] was 0.001 µM; against IRAK4 [2], 0.003 µM.

For `CCOc1nc2nc(C3CC3)cn2cc1NC(=O)c1cccc(C(F)F)n1` [Example 243, N-(2-cyclopropyl-7-ethoxyimidazo[1,2-a]pyrimidin-6-yl)-6-(difluoromethyl)picolinamide], the IC50 on IRAK4 [1] was 0.003 µM; at IRAK4 [2], 0.014 µM.

Turning to `CCOc1cc2nc(C3CCCC(=O)N3C)cn2cc1NC(=O)c1cccc(C(F)F)n1` (centres unmarked) [Example 246, 6-(difluoromethyl)-N-(7-ethoxy-2-(1-methyl-6-oxopiperidin-2-yl)imidazo[1,2-a]pyridin-6-yl)picolinamide], the IC50 against IRAK4 [1] and against IRAK4 [2] was 0.001 µM throughout.

As to `CCOc1cc2nc(C3CCCC(OC)C3)cn2cc1NC(=O)c1cccc(C(F)F)n1` (centres unmarked) [Example 256, 6-(difluoromethyl)-N-(7-ethoxy-2-(3-methoxycyclohexyl)imidazo[1,2-a]pyridin-6-yl)picolinamide], the half-inhibitory concentration (IC50) against IRAK4 [1] and on IRAK4 [2] was 0.001 µM each time.

For the compound `COc1cc(NC(=O)c2cccc(C(F)F)n2)cn2cc(C3CCOCC3)nc12` [Example 304, 6-(difluoromethyl)-N-(8-methoxy-2-(tetrahydro-2H-pyran-4-yl)imidazo[1,2-a]pyridin-6-yl)picolinamide], the half-inhibitory concentration (IC50) against IRAK4 [1] worked out at 0.006 µM; at IRAK4 [2] it was 0.013 µM.

`O=C(Nc1cn2cc(C3CCOCC3)nc2cn1)c1cccc(C(F)F)n1` [Example 330, 6-(difluoromethyl)-N-(2-(tetrahydro-2H-pyran-4-yl)imidazo[1,2-a]pyrazin-6-yl)picolinamide]: the half-inhibitory concentration (IC50) at IRAK4 [1] turned out to be 0.023 µM; against IRAK4 [2] it was 0.038 µM.

In the case of `O=C(Nc1ccc2nc(CC3CCOC3)cn2c1)c1cccc(C(F)F)n1` (centres unmarked) [Example 355, 6-(difluoromethyl)-N-(2-((tetrahydrofuran-3-yl)methyl)imidazo[1,2-a]pyridin-6-yl)picolinamide], the IC50 against IRAK4 [1] is 0.008 µM; at IRAK4 [2], 0.042 µM.

Turning to `O=C(Nc1ccc2nc(C3CCOCC3)cn2c1)c1cccc(C(F)F)n1` [Example 356, 6-(difluoromethyl)-N-(2-(tetrahydro-2H-pyran-4-yl)imidazo[1,2-a]pyridin-6-yl)picolinamide], the IC50 is 0.015 µM at IRAK4 [1] and 0.033 µM against IRAK4 [2].

As to `CCOc1cc2nc(C(C)(C)C#N)cn2cc1NC(=O)c1coc(C(C)C)n1` [Example 358, N-(2-(2-cyanopropan-2-yl)-7-ethoxyimidazo[1,2-a]pyridin-6-yl)-2-isopropyloxazole-4-carboxamide], the figures for the half-inhibitory concentration (IC50) against IRAK4 [1] and against IRAK4 [2] were 0.006 µM and 0.014 µM, respectively.

With `CCOc1cc2nc(C(C)(C)C#N)cn2cc1NC(=O)c1coc(C(F)F)n1` [Example 359, N-(2-(2-cyanopropan-2-yl)-7-ethoxyimidazo[1,2-a]pyridin-6-yl)-2-(difluoromethyl)oxazole-4-carboxamide], the half-inhibitory concentration (IC50) against IRAK4 [1] is 0.01 µM; against IRAK4 [2], 0.023 µM.

For the compound `CCOc1cc2nc(C(C)(C)C#N)cn2cc1NC(=O)c1coc(C2CC2)n1` [Example 360, N-(2-(2-cyanopropan-2-yl)-7-ethoxyimidazo[1,2-a]pyridin-6-yl)-2-cyclopropyloxazole-4-carboxamide], the 50% inhibitory concentration (IC50) against IRAK4 [1] is 0.006 µM; on IRAK4 [2], 0.005 µM.

As for `CCOc1cc2nc(C3CCOCC3)cn2cc1NC(=O)c1cccc(OC2CC2)n1` [Example 361, 6-cyclopropoxy-N-(7-ethoxy-2-(tetrahydro-2H-pyran-4-yl)imidazo[1,2-a]pyridin-6-yl)picolinamide], the half-maximal inhibitory concentration (IC50) on IRAK4 [1] was determined as 0.002 µM; against IRAK4 [2] it was 0.01 µM.

As to `CCOc1cc2nc(C3CCOCC3)cn2cc1NC(=O)c1cccc(OC(F)F)n1` [Example 362, 6-(difluoromethoxy)-N-(7-ethoxy-2-(tetrahydro-2H-pyran-4-yl)imidazo[1,2-a]pyridin-6-yl)picolinamide], the IC50 on IRAK4 [1] came out at 0.006 µM; against IRAK4 [2], 0.017 µM.

Consider `CCOc1cc2nc(C3CCOCC3)cn2cc1NC(=O)c1cccc(COC)n1` [Example 364, N-(7-ethoxy-2-(tetrahydro-2H-pyran-4-yl)imidazo[1,2-a]pyridin-6-yl)-6-(methoxymethyl)picolinamide], for which the half-inhibitory concentration (IC50) was determined as 0.004 µM against IRAK4 [1] and 0.013 µM on IRAK4 [2].

As to `CCOc1cc2nc(C3CCOCC3)cn2cc1NC(=O)c1cccc(C#N)n1` [Example 365, 6-cyano-N-(7-ethoxy-2-(tetrahydro-2H-pyran-4-yl)imidazo[1,2-a]pyridin-6-yl)picolinamide], the half-maximal inhibitory concentration (IC50) amounted to 0.002 µM at IRAK4 [1] and 0.006 µM against IRAK4 [2].

Take `CCOc1cc2nc(C3CCOCC3)cn2cc1NC(=O)c1cccc(C2CC2)n1` [Example 366, 6-cyclopropyl-N-(7-ethoxy-2-(tetrahydro-2H-pyran-4-yl)imidazo[1,2-a]pyridin-6-yl)picolinamide]: the results for the concentration for half-maximal inhibition (IC50) against IRAK4 [1] and against IRAK4 [2] were 0.003 µM and 0.004 µM, respectively.

For the compound `CCOc1nc2nc(C3CCOCC3)cn2cc1NC(=O)c1cccc(OC)n1` [Example 368, N-(7-ethoxy-2-(tetrahydro-2H-pyran-4-yl)imidazo[1,2-a]pyrimidin-6-yl)-6-methoxypicolinamide], the IC50 on IRAK4 [1] was determined as 0.008 µM; at IRAK4 [2], 0.016 µM.

For `CCOc1cc2nc(CC3CCOC3)cn2cc1NC(=O)c1ccc2c(n1)CCC2` (centres unmarked) [Example 369, N-(7-ethoxy-2-((tetrahydrofuran-3-yl)methyl)imidazo[1,2-a]pyridin-6-yl)-6,7-dihydro-5H-cyclopenta[b]pyridine-2-carboxamide], the IC50 stood at 0.002 µM at IRAK4 [1] and 0.026 µM on IRAK4 [2].

Regarding `CCOc1nc2nc(C3CCOCC3)cn2cc1NC(=O)c1cccc(C(F)F)n1` [Example 372, 6-(difluoromethyl)-N-(7-ethoxy-2-(tetrahydro-2H-pyran-4-yl)imidazo[1,2-a]pyrimidin-6-yl)picolinamide], the half-inhibitory concentration (IC50) against IRAK4 [1] came to 0.001 µM; at IRAK4 [2], 0.002 µM.

`CCOc1cc2nc(CC3CCOC3)cn2cc1NC(=O)c1cccn(C)c1=O` (centres unmarked) [Example 373, N-(7-ethoxy-2-((tetrahydrofuran-3-yl)methyl)imidazo[1,2-a]pyridin-6-yl)-1-methyl-2-oxo-1,2-dihydropyridine-3-carboxamide]: the IC50 against IRAK4 [1] was 0.008 µM; at IRAK4 [2] it was 0.028 µM.

As for `CCOc1cc(NC(=O)c2cccc(C(F)F)n2)cn2cc(C3CCOCC3)nc12` [Example 413, 6-(difluoromethyl)-N-(8-ethoxy-2-(tetrahydro-2H-pyran-4-yl)imidazo[1,2-a]pyridin-6-yl)picolinamide], the IC50 against IRAK4 [1] amounted to 0.005 µM; against IRAK4 [2] it was 0.015 µM.

For `COc1nc(NC(=O)c2cccc(C(F)(F)F)n2)cn2cc(C3CCOCC3)nc12` [Example 451, N-(8-methoxy-2-(tetrahydro-2H-pyran-4-yl)imidazo[1,2-a]pyrazin-6-yl)-6-(trifluoromethyl)picolinamide 2,2,2-trifluoroacetate], the figures for the IC50 against IRAK4 [1] and on IRAK4 [2] were 0.029 µM and 0.066 µM, respectively.

Regarding `COc1nc(NC(=O)c2ccn(C)n2)cn2cc(C3CCOCC3)nc12` [Example 461, N-(8-methoxy-2-(tetrahydro-2H-pyran-4-yl)imidazo[1,2-a]pyrazin-6-yl)-1-methyl-1H-pyrazole-3-carboxamide Hydrochloride], the 50% inhibitory concentration (IC50) was determined as 0.033 µM against IRAK4 [1] and 0.148 µM against IRAK4 [2].

In the case of `COc1cc(NC(=O)c2cccc(C(F)F)n2)cn2cc(C3CC4(CCOC4)C3)nc12` (centres unmarked) [Example 507, 6-(difluoromethyl)-N-(8-methoxy-2-(6-oxaspiro[3.4]octan-2-yl)imidazo[1,2-a]pyridin-6-yl)picolinamide], the values for the IC50 against IRAK4 [1] and against IRAK4 [2] were 0.002 µM and 0.004 µM, respectively.

Values taken from patent US20220089592A1, “IMIDAZO[1,2-A]PYRIDINYL DERIVATIVES AS IRAK4 INHIBITORS” (priority 2019, published 2022).
